Measurements taken from patent US9493446B2, “Orexin receptor antagonists which are [ortho bi-(hetero-)aryl]-[2-(meta bi-(hetero-)aryl)-pyrrolidin-1-yl]-methanone derivatives” (Actelion Pharmaceuticals Ltd, priority 2012, dated 2016).
Like-named read-outs stand apart in the source and are kept apart here.

Assays:
[1] = target: human orexin-2 receptor (Homo sapiens (Human), UniProt O43614); test: Intracellular calcium measurement (FLIPR), CHO cells expressing human orexin-2 receptor, 3 nM orexin-A; format: cell-based; conditions: read-out: IC50 OX2
Chain of human orexin-2 receptor (O43614 whole entry): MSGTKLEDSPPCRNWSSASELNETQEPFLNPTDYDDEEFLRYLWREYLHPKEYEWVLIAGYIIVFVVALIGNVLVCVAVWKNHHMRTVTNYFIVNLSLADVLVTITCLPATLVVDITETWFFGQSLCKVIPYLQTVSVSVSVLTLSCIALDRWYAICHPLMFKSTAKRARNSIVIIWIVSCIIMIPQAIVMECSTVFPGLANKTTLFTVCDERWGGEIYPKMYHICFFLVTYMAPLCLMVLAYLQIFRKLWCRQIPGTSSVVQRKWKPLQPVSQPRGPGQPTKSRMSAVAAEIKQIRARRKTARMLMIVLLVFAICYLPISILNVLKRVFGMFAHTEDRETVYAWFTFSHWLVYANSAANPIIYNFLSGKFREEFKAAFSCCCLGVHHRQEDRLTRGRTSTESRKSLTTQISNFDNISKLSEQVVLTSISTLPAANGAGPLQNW
Method: (§1) In Vitro Assay: Intracellular Calcium Measurements:
(§2) Chinese hamster ovary (CHO) cells expressing the human orexin-1 receptor and the human orexin-2 receptor, respectively, are grown in culture medium (Ham F-12 with L-Glutamine) containing 300 μg/mL G418, 100 U/mL penicillin, 100 μg/mL streptomycin and 10% heat inactivated fetal calf serum (FCS). The cells are seeded at 20,000 cells/well into 384-well black clear bottom sterile plates (Greiner). The seeded plates are incubated overnight at 37° C. in 5% CO2.
(§3) Human orexin-A as an agonist is prepared as 1 mM stock solution in MeOH: water (1:1), diluted in HBSS containing 0.1% bovine serum albumin (BSA), NaHCO3: 0.375 g/L and 20 mM HEPES for use in the assay at a final concentration of 3 nM.
(§4) Antagonists are prepared as 10 mM stock solution in DMSO, then diluted in 384-well plates using DMSO followed by a transfer of the dilutions into in HBSS containing 0.1% bovine serum albumin (BSA), NaHCO3: 0.375 g/L and 20 mM HEPES. On the day of the assay, 50 μL of staining buffer (HBSS containing 1% FCS, 20 mM HEPES, NaHCO3: 0.375 g/L, 5 mM probenecid (Sigma) and 3 μM of the fluorescent calcium indicator fluo-4 AM (1 mM stock solution in DMSO, containing 10% pluronic) is added to each well. The 384-well cell-plates are incubated for 50 min at 37° C. in 5% CO2 followed by equilibration at rt for 30 min before measurement.
(§5) Within the Fluorescent Imaging Plate Reader (FLIPR Tetra, Molecular Devices), antagonists are added to the plate in a volume of 10 μL/well, incubated for 120 min and finally 10 μL/well of agonist is added. Fluorescence is measured for each well at 1 second intervals, and the height of each fluorescence peak is compared to the height of the fluorescence peak induced by 3 nM orexin-A with vehicle in place of antagonist. […] Optimized conditions were achieved by adjustment of pipetting speed and cell splitting regime. The calculated IC50 values may fluctuate depending on the daily cellular assay performance. Fluctuations of this kind are known to those skilled in the art.

[2] = target: orexin-1 (Homo sapiens (Human), UniProt O43613); test: Intracellular calcium measurement (FLIPR), CHO cells expressing human orexin-1 receptor, 3 nM orexin-A; format: cell-based; conditions: read-out: IC50 OX1
Chain of orexin-1 (O43613 whole entry): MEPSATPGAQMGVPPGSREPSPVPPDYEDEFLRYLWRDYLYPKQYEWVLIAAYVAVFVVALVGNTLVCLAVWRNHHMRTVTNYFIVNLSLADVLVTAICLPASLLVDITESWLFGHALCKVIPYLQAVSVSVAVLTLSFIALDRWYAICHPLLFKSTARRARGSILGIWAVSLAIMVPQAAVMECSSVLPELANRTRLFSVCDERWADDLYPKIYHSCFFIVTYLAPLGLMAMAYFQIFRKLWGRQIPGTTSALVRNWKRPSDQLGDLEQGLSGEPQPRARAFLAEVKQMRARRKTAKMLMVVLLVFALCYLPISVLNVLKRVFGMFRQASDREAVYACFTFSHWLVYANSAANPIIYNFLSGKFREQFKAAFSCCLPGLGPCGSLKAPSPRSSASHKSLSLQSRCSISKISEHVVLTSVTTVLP
Method: as §1, §2, §3, §4, §5

[3] = CHO cells expressing human orexin-1 receptor, FLIPR, 3 nM orexin-A, geometric mean if determined several times
[4] = CHO cells expressing human orexin-2 receptor, FLIPR, 3 nM orexin-A, geometric mean if determined several times

Structure (SMILES)	IC50 [1]	IC50 [2, 3]	IC50 [1, 4]	IC50 [2]
Cc1cc(F)cc(C(=O)N2CCC[C@H]2c2nc(-c3cccc(Cl)c3C)no2)c1-n1nccn1 [compound 132]	250 nM	831 nM		
CCOc1ncccc1-c1noc([C@@H]2CCCN2C(=O)c2cc(C)ccc2-n2nccn2)n1 [compound 41, {(S)-2-[3-(2-Ethoxy-pyridin-3-yl)-[1,2,4]oxadiazol-5-yl]-pyrrolidin-1-yl}-(5-methyl-2-[1,2,3]triazol-2-yl-phenyl)-methanone]		22 nM	7 nM	
COc1ncccc1-c1cc([C@@H]2CCCN2C(=O)c2cc(C)ccc2-n2nccn2)on1 [compound 426, {(S)-2-[3-(2-Methoxy-pyridin-3-yl)-isoxazol-5-yl]-pyrrolidin-1-yl}-(5-methyl-2-[1,2,3]triazol-2-yl-phenyl)-methanone]		414 nM	30 nM	
Cc1ccc(-n2nccn2)c(C(=O)N2CCC[C@H]2c2ncc(-c3ccccc3OC(F)(F)F)[nH]2)c1 [compound 529, (5-Methyl-2-[1,2,3]triazol-2-yl-phenyl)-{(S)-2-[5-(2-trifluoromethoxy-phenyl)-1H-imidazol-2-yl]-pyrrolidin-1-yl}-methanone]		10 nM	2 nM	
Cc1ccc(-n2nccn2)c(C(=O)N2CCC[C@H]2c2nc(-c3cc(C)c(C)cn3)no2)c1 [compound 62, {(S)-2-[3-(4,5-Dimethyl-pyridin-2-yl)-[1,2,4]oxadiazol-5-yl]-pyrrolidin-1-yl}-(5-methyl-2-[1,2,3]triazol-2-yl-phenyl)-methanone]		> 1630 nM	242 nM	
O=C(c1cccs1)N1CCC[C@H]1c1nc(-c2cccc(Cl)c2)no1 [Ref 2]		4260 nM	7230 nM	
Cc1ccc(-n2nccn2)c(C(=O)N2CCC[C@H]2c2nnc(-c3cccc(Cl)c3C)o2)c1 [compound 440]		141 nM	21 nM	
CCOc1ncccc1-c1noc([C@@H]2CCCN2C(=O)c2ccc(C)cc2-n2nccn2)n1 [compound 211, {(S)-2-[3-(2-Ethoxy-pyridin-3-yl)-[1,2,4]oxadiazol-5-yl]-pyrrolidin-1-yl}-(4-methyl-2-[1,2,3]triazol-2-yl-phenyl)-methanone]		81 nM	37 nM	
COc1cccc(-c2noc([C@@H]3CCCN3C(=O)c3cc(C)ccc3-n3nccn3)n2)c1Cl [compound 70]	53 nM	623 nM		
CCc1ccccc1-c1nc([C@@H]2CCCN2C(=O)c2cc(Cl)ccc2-n2nccn2)no1 [compound 395]	10 nM			31 nM
O=C(c1ccccc1-n1nccn1)N1CCC[C@H]1c1nc(-c2ccccc2OC(F)(F)F)no1 [compound 141, (2-[1,2,3]Triazol-2-yl-phenyl)-{(S)-2-[3-(2-trifluoromethoxy-phenyl)-[1,2,4]oxadiazol-5-yl]-pyrrolidin-1-yl}-methanone]		59 nM	29 nM	
Cc1ccc(-n2nccn2)c(C(=O)N2CCC[C@H]2c2nc(-c3ccccc3C(F)(F)F)no2)c1 [compound 29, (5-Methyl-2-[1,2,3]triazol-2-yl-phenyl)-{(S)-2-[3-(2-trifluoromethyl-phenyl)-[1,2,4]oxadiazol-5-yl]-pyrrolidin-1-yl}-methanone]		249 nM	39 nM	
Cc1ccc(-n2nccn2)c(C(=O)N2CCC[C@H]2c2nc(-c3cccc(C)c3Cl)no2)c1 [compound 27]	8 nM	125 nM		
Cc1ccc(-n2nccn2)c(C(=O)N2CCC[C@H]2c2ncn(-c3ccccc3)n2)c1 [Example 535, (5-Methyl-2-[1,2,3]triazol-2-yl-phenyl)-[(S)-2-(1-phenyl-1H-[1,2,4]triazol-3-yl)-pyrrolidin-1-yl]-methanone]		47 nM	363 nM	
O=C(c1ccc(C(F)(F)F)cc1-n1nccn1)N1CCC[C@H]1c1nc(-c2ccccc2OC(F)(F)F)no1 [compound 173, (2-[1,2,3]Triazol-2-yl-4-trifluoromethyl-phenyl)-{(S)-2-[3-(2-trifluoromethoxy-phenyl)-[1,2,4]oxadiazol-5-yl]-pyrrolidin-1-yl}-methanone]		132 nM	116 nM	
COc1cc(C(=O)N2CCC[C@H]2c2nnc(-c3cccc(Cl)c3OC)[nH]2)c(-n2nccn2)cc1Cl [compound 491, {(S)-2-[5-(3-Chloro-2-methoxy-phenyl)-4H-[1,2,4]triazol-3-yl]-pyrrolidin-1-yl}-(4-chloro-5-methoxy-2-[1,2,3]triazol-2-yl-phenyl)-methanone]		33 nM	1 nM	
Cc1ccc(-n2nccn2)c(C(=O)N2CCC[C@H]2c2noc(-c3cccc(Cl)c3C)n2)c1 [Example 318, {(S)-2-[5-(3-Chloro-2-methyl-phenyl)-[1,2,4]oxadiazol-3-yl]-pyrrolidin-1-yl}-(5-methyl-2-[1,2,3]triazol-2-yl-phenyl)-methanone]		42 nM	7 nM	
COc1c(F)cccc1-c1noc([C@@H]2CCCN2C(=O)c2cc(F)cc(C)c2-n2nccn2)n1 [compound 207, {(S)-2-[3-(3-Fluoro-2-methoxy-phenyl)-[1,2,4]oxadiazol-5-yl]-pyrrolidin-1-yl}-(5-fluoro-3-methyl-2-[1,2,3]triazol-2-yl-phenyl)-methanone]		1810 nM	565 nM	
COc1ccc(-n2nccn2)c(C(=O)N2CCC[C@H]2c2nc(-c3ccccc3OC(F)(F)F)no2)c1 [compound 151, (5-Methoxy-2-[1,2,3]triazol-2-yl-phenyl)-{(S)-2-[3-(2-trifluoromethoxy-phenyl)-[1,2,4]oxadiazol-5-yl]-pyrrolidin-1-yl}-methanone]		27 nM	27 nM	
O=C(c1[nH]cnc1-c1ccccc1)N1CCC[C@H]1c1nc(-c2ccccc2OC(F)(F)F)no1 [compound 153, (5-Phenyl-3H-imidazol-4-yl)-{(S)-2-[3-(2-trifluoromethoxy-phenyl)-[1,2,4]oxadiazol-5-yl]-pyrrolidin-1-yl}-methanone]		781 nM	460 nM	
O=C(c1cc(Cl)ccc1-n1nccn1)N1CCC[C@H]1c1nc(-c2ccccc2OC(F)F)no1 [compound 186]		138 nM	17 nM	
Cc1cccc(-c2oc(C)nc2C(=O)N2CCC[C@H]2c2nc(-c3ccccc3OC(F)(F)F)no2)c1 [compound 139, (2-Methyl-5-m-tolyl-oxazol-4-yl)-{(S)-2-[3-(2-trifluoromethoxy-phenyl)-[1,2,4]oxadiazol-5-yl]-pyrrolidin-1-yl}-methanone]		124 nM	62 nM	
Cc1ccc(-n2nccn2)c(C(=O)N2CCC[C@H]2c2noc(-c3cccc(C(F)(F)F)n3)n2)c1 [compound 314, (5-Methyl-2-[1,2,3]triazol-2-yl-phenyl)-{(S)-2-[5-(6-trifluoromethyl-pyridin-2-yl)-[1,2,4]oxadiazol-3-yl]-pyrrolidin-1-yl}-methanone]		249 nM	314 nM	
O=C(c1cc(F)c(F)cc1-n1nccn1)N1CCC[C@H]1c1nc(-c2ccccc2OC(F)(F)F)no1 [compound 161, (4,5-Difluoro-2-[1,2,3]triazol-2-yl-phenyl)-{(S)-2-[3-(2-trifluoromethoxy-phenyl)-[1,2,4]oxadiazol-5-yl]-pyrrolidin-1-yl}-methanone]		751 nM	204 nM	
